Source: PubChem BioAssay AID720623 (The Scripps Research Institute Molecular Screening Center, 2013)
Active and inactive are the calls of the source. How the calls were made is not given here.

Test system: methionyl-tRNA synthetase (Trypanosoma brucei brucei)
Assay: T. brucei MetRS aminoacylation inhibitors, late-stage follow-up, counter-screen for T. brucei MetRS inhibitor project, biochemical, radioactivity, assay provider (AID 720623)
Conditions: Recombinant T. brucei MetRS enzyme, [3H]methionine tRNA aminoacylation, filter scintillation, 120 min, stronger effect = higher value

Row | SMILES | inhibition (at 10 µM) | inhibition (inhibition, at 1 µM) [%]
1 | O=C(NCc1nc2ccccc2[nH]1)C1=C[C@@H](C2CC2)C[C@@H](OCc2ccc(CO)cc2)O1 | 93.6% | 52.8
2 | O=C(C[C@H]1C(=O)N(Cc2ccccc2)C[C@@H]1c1ccc(Br)cc1)Nc1ccc(Br)cc1 | 94.4% | 55.7
3 | O=C(NCc1nc2ccccc2[nH]1)C1=C[C@H](c2ccc(Br)cc2)C[C@H](OCc2ccc(CO)cc2)O1 | 94.6% | 50.3
4 | COc1cccc(NC(=O)CSc2nnc3c(n2)[nH]c2ccc(C)cc23)c1 | 94.2% | 97.7
5 | O=C(NCCc1nc2ccccc2[nH]1)c1ccc(Cl)c([N+](=O)[O-])c1 | 99.6% | 89.8
6 | Cc1[nH]c2ccc(Br)cc2c(=O)c1CN1CCCCCC1 | 86.6% | 19.4
7 | O=C(Cn1cc(C(=O)C(=O)N2CCOCC2)c2ccccc21)Nc1cccc(C(F)(F)F)c1 | 100% | 87.5
8 | O=C(NCc1nc2ccccc2[nH]1)C1=C[C@H](c2ccc3c(c2)OCO3)C[C@H](OCCCCO)O1 | 79.4% | 5.68
9 | COc1ccc(OCC(O)CNC(=O)Nc2ccc(Cl)cc2)cc1 (stereo not drawn) | 61.9% | 28.9
10 | O=C(CCC(=O)Nc1cccc([N+](=O)[O-])c1)NN=Cc1cccs1 | 74.3% | 6.25
11 | C[C@H](O)[C@@H]1C(=O)N2CCc3c([nH]c4ccccc34)[C@@H]2C[C@@H]1N(C)Cc1ccc2c(c1)OCO2 | 80.4% | 1.98
12 | Brc1cnc2nc(SCc3nc4ccccc4[nH]3)[nH]c2c1 | 84.9% | 23.7
13 | CN(Cc1cc(Cl)cc(Cl)c1)[C@H]1C[C@H]2c3[nH]c4ccccc4c3CCN2C(=O)[C@H]1CO | 101% | 95.1
14 | COc1ccccc1NS(=O)(=O)c1cccc(NC(=O)Nc2ccccc2)c1 | 95.1% | 57
15 | CCO[C@@H]1OC(C(=O)NCc2nc3ccccc3[nH]2)=C[C@H](c2ccc(Br)cc2)[C@H]1CCCO | 64% | 6.72
16 | O=C(NCc1nc2ccccc2[nH]1)C1=C[C@H](c2ccccc2)C[C@H](OCc2ccc(CO)cc2)O1 | 61.8% | 7.32
17 | CCCCCCCCCC1NC(C(=O)O)Cc2c1[nH]c1ccccc21 (stereo not drawn) | 93.2% | 64.7
18 | O=C(NCc1nc2ccccc2[nH]1)C1=C[C@@H](c2ccc(Br)cc2)C[C@@H](OCCCCO)O1 | 99.9% | 84.2
19 | CC(=O)c1ccc(N2CCN(C(=O)CCCn3c(=O)[nH]c4ccc(Br)cc4c3=O)CC2)cc1 | 97% | 68.1
20 | O=C(NCc1nc2ccccc2[nH]1)C1=C[C@@H](c2ccc(Br)cc2)C[C@@H](OCc2ccc(CO)cc2)O1 | 97.6% | 62.1
21 | O=C(N/C(=C\c1cccnc1)c1nc2ccccc2[nH]1)c1cccc(Br)c1 | 71.7% | 14.4
22 | COc1ccc(CNC(=O)CSc2nnc3c(n2)[nH]c2ccc(F)cc23)cc1 | 89.6% | 47.5
23 | CCO[C@H]1OC(C(=O)NCc2nc3ccccc3[nH]2)=C[C@@H](c2ccc(Br)cc2)[C@@H]1CCCO | 81.6% | 0.88
24 | O=C(CN1CCSC1=NCc1ccccc1)c1ccc(Cl)c(Cl)c1 | 28% (inactive) | -1.95
25 | COc1ccc2[nH]c3nc(SCC(=O)Nc4ccc5c(c4)OCO5)nnc3c2c1 | 65.6% | 63.4
26 | O=C(NCc1nc2ccccc2[nH]1)C1=C[C@H](c2ccc(Br)cc2)C[C@H](OCCCCO)O1 | 94.3% | 51.6
27 | Clc1ccc(-c2nnc(SCc3nc4ccccc4[nH]3)o2)c(Cl)c1 | 97% | 75.3

Row | SMILES | inhibition (at 10 µM) | inhibition (inhibition, at 1 µM) [%]
28 | O=C(NNC(=O)c1cc(-c2ccc(Cl)c(Cl)c2)nc2ccccc12)Nc1ccccc1 | 85.5% | 59.7
29 | O=C1CC(N(CCc2ccccc2)C(=S)Nc2ccccc2)C(=O)N1c1ccc(Br)cc1 (stereo not drawn) | 97.3% | 84.2
30 | CN1CC(=O)N2C(c3cccc([N+](=O)[O-])c3)c3[nH]c4ccccc4c3C[C@H]2C1=O (stereo partly drawn) | 96.7% | 57.7
31 | CC(CC(=O)Nc1cccc(Br)c1)=NNC(=O)c1ccc(O)cc1O | 90.5% | 36.5
32 | O=C(Cn1cnc2ccccc21)Nc1cccc([N+](=O)[O-])c1 | 91.9% | 44.9
33 | CCOC(=O)N1CCC(Nc2c(Nc3ccc(F)cc3)c(=O)c2=O)CC1 | 72.7% | 28.4
34 | O=C(Nc1ccc(F)c(Cl)c1)C1CC(=O)n2c(nc3ccccc32)N1 (stereo not drawn) | 90.3% | 44.9
35 | O=C(NCc1nc2ccccc2[nH]1)C1=C[C@H](C2CC2)C[C@H](OCc2ccc(CO)cc2)O1 | 56.9% | -3.3
36 | O=C(CC=NOCc1ccc([N+](=O)[O-])cc1)Nc1ccc(Br)cc1 | 84.7% | 32.2
37 | O=C(NCc1nc2ccccc2[nH]1)C1=C[C@@H](c2ccccc2)C[C@@H](OCc2ccc(CO)cc2)O1 | 94.3% | 44.6
38 | O=C(NNC(=O)c1ccc(-n2cncn2)c([N+](=O)[O-])c1)c1ccc(Cl)cc1 | 73% | 7.36
39 | O=C(NCc1nc2ccccc2[nH]1)C1=C[C@@H](c2csc3ccccc23)C[C@@H](OCCCCO)O1 | 89.2% | 20.6
40 | O=C(NCc1nc2ccccc2[nH]1)C1=C[C@@H](c2ccc3c(c2)OCO3)C[C@@H](OCCCCO)O1 | 93.7% | 50.4
41 | Cc1ccc(NC(=O)CN(C)C(=O)CCSc2ccc(F)cc2)cc1 | 67.3% | -1.05
42 | CC(C)OCCCN1CC(=O)N2C(c3cccc([N+](=O)[O-])c3)c3[nH]c4ccccc4c3C[C@H]2C1=O (stereo partly drawn) | 93.1% | 50
43 | Clc1ccc(OCCSCc2nc3ccccc3[nH]2)cc1 | 44.8% (inactive) | -2.58
44 | O=C(NCc1nc2ccccc2[nH]1)C1=C[C@H](c2csc3ccccc23)C[C@H](OCCCCO)O1 | 97.8% | 71.1
45 | CN(CC(=O)Nc1ccc(Cl)cc1)C(=O)c1ccc(-n2cncn2)c([N+](=O)[O-])c1 | 92.5% | 38
46 | CC(C)(C)[C@H]1C=C(C(=O)NCc2nc3ccccc3[nH]2)O[C@@H](OCc2ccc(CO)cc2)C1 | 83.8% | 21.6
47 | O=C(CC(=O)Nc1cccc(Cl)c1)NN=Cc1ccccc1 | 81.1% | 28.2
48 | COc1ccccc1-n1c(SCC(=O)Nc2ccc(Cl)cc2)nc(O)c(Cc2ccccc2)c1=O | 67% | 2.04
49 | O=C1CC(SCc2nc3ccccc3[nH]2)C(=O)N1c1cccc(Cl)c1 (stereo not drawn) | 52.6% | 19.7
50 | CC(C)(C)[C@@H]1C=C(C(=O)NCc2nc3ccccc3[nH]2)O[C@H](OCc2ccc(CO)cc2)C1 | 84.8% | 30.8
51 | CC(=O)c1c[nH]c(C(=O)NCc2cccc(C(F)(F)F)c2)c1 | 92.7% | 44.6
52 | O=C1[C@@H]2Cc3c([nH]c4ccccc34)C(c3cccc([N+](=O)[O-])c3)N2C(=O)CN1CCCO (stereo partly drawn) | 97.5% | 63.2
53 | Oc1c(Cl)cc(Cl)cc1CNc1nc2ccccc2[nH]1 | 98.7% | 88.3
54 | O=C(CC=NOCc1ccc([N+](=O)[O-])cc1)Nc1ccc(Cl)cc1 | 86.5% | 28.6
